What was measured:
[1] = biological target: T1, CDK19 (CDC2L6/CycC) (Homo sapiens, UniProt Q9BWU1); test: CDK19 inhibitory activity (TR-FRET, Kinase Tracer-236 displacement); format: binding; conditions: 1 μM of the test compound; read-out: Percent inhibition of CDK19 activity (%)
T1 construct: purchased Carna Biosciences
Description: (§1) The compound of the present invention was evaluated for its CDK8 inhibitory activity and CDK19 inhibitory activity by the following method. […] The primary diluted solution was dispensed in the amount of 2 μL/well to a 384-well plate, and then, a mixed solution of Eu^3+ Cryptate conjugated mouse monoclonal antibody anti-glutathione S-transferase (Cisbio) diluted 267-fold with an assay buffer and 60 nM Kinase Tracer-236 (Life technologies) was added thereto at 2 μL/well. After the addition, each kinase solution (84 ng/mL CDK8/CycC (Carna Biosciences) diluted with an assay buffer used for CDK8 inhibitory activity measurement, and 87 ng/mL CDC2L6/CycC (Carna Biosciences) diluted with an assay buffer used for CDK19 inhibitory activity measurement) was further added thereto at 2 μL/well. After the addition, the plate was left standing at room temperature for 1 hour, and then, the fluorescence intensity (excitation wavelength 320 nm, fluorescence wavelength 615 nm, 665 nm, delay time 50 μsec) was measured using an EnVision plate reader (PerkinElmer).

[2] = biological target: T2, CDK8/CycC (Homo sapiens, UniProt P49336); test: CDK8 inhibitory activity (TR-FRET, Kinase Tracer-236 displacement); format: binding; conditions: 1 μM of the test compound; read-out: Percent inhibition of CDK8 activity (%)
T2 construct: purchased Carna Biosciences
Description: as §1

[3] = system: human multiple myeloma RPMI8226 cells; test: Inhibitory activity against human multiple myeloma RPMI8226 cell growth (CellTiter-Glo); format: cell-based; conditions: Homo sapiens, RPMI-8226, 192 h, 1 μM of the test compound, cultured for 8 days; read-out: Percent inhibition of RPMI8226 cell growth (%)
Description: The compound of the present invention was evaluated for its inhibitory activity against human multiple myeloma RPMI8226 cell growth by the following method.
A suspension of human multiple myeloma RPMI8226 cells (purchased from the Health Protection Agency) was inoculated at 40 μL (300 cells/well) to a 384-well plate and cultured at 37° C. for 1 day in a 5% CO2 incubator. After the culture, each test compound solution was added thereto at a test concentration of 1 μM using TECAN D300, and the cells were further cultured for 8 days. After the culture, CellTiter-Glo™ Luminescent Cell Viability Assay reagent (Promega) was added at 40 μL/well to a 384-well plate, and the amount of luminescence was measured using a luminometer. Inhibitory activity against human multiple myeloma RPMI8226 cell growth (percent inhibition (%)) of the test compound was calculated according to the following formula, which is based on the hypothesis that the amount of residual ATP reflects the number of cells. In this formula, 100% control represents the amount of luminescence from a well with only 0.1% DMSO added. Percent inhibition (%)=(1−(amount of luminescence of the test compound)÷(100% control))×100

T2 sequence (P49336 whole entry): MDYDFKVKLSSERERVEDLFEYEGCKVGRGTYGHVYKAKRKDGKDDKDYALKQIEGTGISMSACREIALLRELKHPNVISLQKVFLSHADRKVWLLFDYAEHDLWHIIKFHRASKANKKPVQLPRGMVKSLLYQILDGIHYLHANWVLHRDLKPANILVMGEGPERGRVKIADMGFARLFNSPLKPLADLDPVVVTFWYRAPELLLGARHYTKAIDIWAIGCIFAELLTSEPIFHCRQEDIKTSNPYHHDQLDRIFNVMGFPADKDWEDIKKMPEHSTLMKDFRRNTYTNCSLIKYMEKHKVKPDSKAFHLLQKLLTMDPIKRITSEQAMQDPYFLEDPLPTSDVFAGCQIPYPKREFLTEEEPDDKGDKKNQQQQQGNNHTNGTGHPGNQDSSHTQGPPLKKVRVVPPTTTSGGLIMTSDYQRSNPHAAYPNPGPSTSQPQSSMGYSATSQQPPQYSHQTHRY
T2 sequence (P24863 whole entry partner): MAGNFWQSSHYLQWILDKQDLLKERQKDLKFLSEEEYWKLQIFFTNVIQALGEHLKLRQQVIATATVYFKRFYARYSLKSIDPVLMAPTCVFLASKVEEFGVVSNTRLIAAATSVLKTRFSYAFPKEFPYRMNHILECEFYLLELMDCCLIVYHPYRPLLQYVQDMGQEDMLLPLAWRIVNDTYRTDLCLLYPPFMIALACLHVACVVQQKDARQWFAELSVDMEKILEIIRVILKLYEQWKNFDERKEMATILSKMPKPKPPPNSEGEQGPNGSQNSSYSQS
T1 sequence (Q9BWU1 whole entry): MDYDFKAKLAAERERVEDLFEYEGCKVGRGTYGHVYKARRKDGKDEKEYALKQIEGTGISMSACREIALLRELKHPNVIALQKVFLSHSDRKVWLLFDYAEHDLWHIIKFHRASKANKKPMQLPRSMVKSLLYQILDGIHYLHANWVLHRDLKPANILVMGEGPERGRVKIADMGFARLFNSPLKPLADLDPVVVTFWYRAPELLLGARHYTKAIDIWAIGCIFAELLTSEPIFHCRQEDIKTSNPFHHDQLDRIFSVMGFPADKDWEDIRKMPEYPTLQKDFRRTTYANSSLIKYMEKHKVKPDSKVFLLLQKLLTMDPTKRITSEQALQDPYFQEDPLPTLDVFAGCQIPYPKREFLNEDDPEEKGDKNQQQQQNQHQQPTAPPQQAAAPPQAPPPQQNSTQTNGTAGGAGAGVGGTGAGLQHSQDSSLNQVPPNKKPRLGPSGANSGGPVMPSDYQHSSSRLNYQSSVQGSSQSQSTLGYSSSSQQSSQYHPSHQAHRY
T1 sequence (P24863 whole entry partner): as the sequence (P24863 whole entry partner) above

Row | inhibition at 1 µM [1] [%] | inhibition at 1 µM [2] [%] | Structure (SMILES) | inhibition at 1 µM [3] [%]
1 | 97 | 96 | Cn1cc(-c2ccncc2/C=C/C(=O)Nc2ccc(CNC3CC(F)(F)C3)cc2)cn1 [Example 89, (2E)-N-(4-(((3,3-difluorocyclobutyl)amino)methyl)phenyl)-3-(4-(1-methyl-1H-pyrazol-4-yl)pyridin-3-yl)acrylamide] | 63
2 | 94 | 100 | Cn1cc(-c2ccncc2/C=C/C(=O)Nc2ccc3c(c2)OCC3)cn1 [Example 116, (2E)-N-(2,3-dihydro-1-benzofuran-6-yl)-3-(4-(1-methyl-1H-pyrazol-4-yl)pyridin-3-yl)acrylamide] | 55
3 | 101 | 99 | Cn1cc(-c2ccncc2/C=C/C(=O)Nc2ccc(CC(C)(C)O)cc2)cn1 [Example 123, (2E)-N-(4-(2-hydroxy-2-methylpropyl)phenyl)-3-(4-(1-methyl-1H-pyrazol-4-yl)pyridin-3-yl)acrylamide] | 62
4 | 99 | 98 | Cn1cc(-c2ccncc2/C=C/C(=O)Nc2ccc(CCC(F)(F)F)cc2)cn1 [Example 124, (2E)-3-(4-(1-methyl-1H-pyrazol-4-yl)pyridin-3-yl)-N-(4-(3,3,3-trifluoropropyl)phenyl)acrylamide] | 53
5 | 96 | 95 | Cn1cc(-c2ccncc2/C=C/C(=O)Nc2ccc(Oc3ccncc3)cc2)cn1 [Example 137, (2E)-3-(4-(1-methyl-1H-pyrazol-4-yl)pyridin-3-yl)-N-(4-(pyridin-4-yloxy)phenyl)acrylamide] | 54
6 | 99 | 96 | Cn1cc(-c2ccncc2/C=C/C(=O)Nc2ccc3cnccc3c2)cn1 [Example 154, (2E)-N-(isoquinolin-6-yl)-3-(4-(1-methyl-1H-pyrazol-4-yl)pyridin-3-yl)acrylamide] | 62
7 | 93 | 98 | Cn1cc(-c2ccncc2/C=C/C(=O)Nc2ccc3cc[nH]c3c2)cn1 [Example 155, (2E)-N-(1H-indol-6-yl)-3-(4-(1-methyl-1H-pyrazol-4-yl)pyridin-3-yl)acrylamide] | 54
8 | 94 | 94 | Cn1cc(-c2ccncc2/C=C/C(=O)Nc2ccc3ccncc3c2)cn1 [Example 156, (2E)-N-(isoquinolin-7-yl)-3-(4-(1-methyl-1H-pyrazol-4-yl)pyridin-3-yl)acrylamide] | 55

The remaining lines, values behind:

Row | Structure (SMILES) | inhibition at 1 µM [1] [%] | inhibition at 1 µM [2] [%] | inhibition at 1 µM [3] [%]
9 | Cn1cc(-c2ccncc2/C=C/C(=O)Nc2ccc(CN3CCN4CCCC4C3)cc2)cn1 (stereo not drawn) [Example 78, (2E)-N-(4-(hexahydropyrrolo[1,2-a]pyrazin-2(1H)-ylmethyl)phenyl)-3-(4-(1-methyl-1H-pyrazol-4-yl)pyridin-3-yl)acrylamide] | 74 | 100 | 59
10 | Cn1cc(-c2ccncc2/C=C/C(=O)Nc2ccc(CN3CCC4(CC3)COC4)cc2)cn1 [Example 84, (2E)-3-(4-(1-methyl-1H-pyrazol-4-yl)pyridin-3-yl)-N-(4-(2-oxa-7-azaspiro[3.5]non-7-ylmethyl)phenyl)acrylamide] | 97 | 97 | 60
11 | Cn1cc(-c2ccncc2/C=C/C(=O)Nc2ccc(CCN3CCOCC3)cc2)cn1 [Example 91, (2E)-3-(4-(1-Methyl-1H-pyrazol-4-yl)pyridin-3-yl)-N-(4-(2-(morpholin-4-yl)ethyl)phenyl)acrylamide] | 101 | 96 | 59
12 | CCn1cc(-c2ccncc2/C=C/C(=O)Nc2ccc(CN3CCOCC3)cc2)cn1 [Example 92, (2E)-3-(4-(1-Ethyl-1H-pyrazol-4-yl)pyridin-3-yl)-N-(4-(morpholin-4-ylmethyl)phenyl)acrylamide] | 100 | 96 | 63
13 | O=C(/C=C/c1cnccc1-c1cnn(Cc2ccccc2)c1)Nc1ccc(CN2CCOCC2)cc1 [Example 93, (2E)-3-(4-(1-benzyl-1H-pyrazol-4-yl)pyridin-3-yl)-N-(4-(morpholin-4-ylmethyl)phenyl)acrylamide] | 101 | 101 | 63
14 | O=C(/C=C/c1cnccc1-c1cnn(C(F)F)c1)Nc1ccc(CN2CCOCC2)cc1 [Example 98, (2E)-3-(4-(1-(Difluoromethyl)-1H-pyrazol-4-yl)pyridin-3-yl)-N-(4-(morpholin-4-ylmethyl)phenyl)acrylamide] | 100 | 98 | 53
15 | CCn1cc(-c2ccncc2CCC(=O)Nc2ccc(CN3CCOCC3)cc2)cn1 [Example 99, 3-(4-(1-Ethyl-1H-pyrazol-4-yl)pyridin-3-yl)-N-(4-(morpholin-4-ylmethyl)phenyl)propanamide] | 85 | 90 | 62
16 | COc1ccsc1-c1ccncc1/C=C/C(=O)Nc1ccc(CN2CCOCC2)cc1 [Example 100, (2E)-3-(4-(3-methoxy-2-thienyl)pyridin-3-yl)-N-(4-(morpholin-4-ylmethyl)phenyl)acrylamide] | 100 | 97 | 52
17 | O=C(/C=C/c1cnccc1-c1cnn2ccccc12)Nc1ccc(CN2CCOCC2)cc1 [Example 101, (2E)-N-(4-(morpholin-4-ylmethyl)phenyl)-3-(4-(pyrazolo[1,5-a]pyridin-3-yl)pyridin-3-yl)acrylamide] | 97 | 98 | 55
18 | O=C(/C=C/c1cnccc1-c1cnn(CC2CC2)c1)Nc1ccc(CCN2CCOCC2)cc1 [Example 108, (2E)-3-(4-(1-(cyclopropylmethyl)-1H-pyrazol-4-yl)pyridin-3-yl)-N-(4-(2-(morpholin-4-yl)ethyl)phenyl)acrylamide] | 97 | 94 | 58
19 | Cc1cc(NC(=O)/C=C/c2cnccc2-c2cnn(C)c2)ccc1CN1CCOCC1 [Example 109, (2E)-N-(3-Methyl-4-(morpholin-4-ylmethyl)phenyl)-3-(4-(1-methyl-1H-pyrazol-4-yl)pyridin-3-yl)acrylamide] | 98 | 96 | 58
20 | Cc1cc(NC(=O)/C=C/c2cnccc2-c2cnn(C3CC3)c2)ccc1CN1CCOCC1 [Example 142, (2E)-3-(4-(1-cyclopropyl-1H-pyrazol-4-yl)pyridin-3-yl)-N-(3-methyl-4-(morpholin-4-ylmethyl)phenyl)acryalmide] | 99 | 98 | 62
21 | CC(C)(O)Cc1ccc(NC(=O)/C=C/c2cnccc2-c2cnn(C3CC3)c2)cc1 [Example 143, (2E)-3-(4-(1-cyclopropyl-1H-pyrazol-4-yl)pyridin-3-yl)-N-(4-(2-hydroxy-2-methylpropyl)phenyl)acrylamide] | 103 | 100 | 61
22 | O=C(/C=C/c1cnccc1-c1cnsc1)Nc1ccc(CN2CCOCC2)cc1 [Example 145, (2E)-N-(4-(Morpholin-4-ylmethyl)phenyl)-3-(4-(1,2-thiazol-4-yl)pyridin-3-yl)acrylamide] | 94 | 90 | 51
23 | Cn1cc(-c2ccncc2/C=C/C(=O)Nc2ccc(CN3CCOCC3)c(O)c2)cn1 [Example 148, (2E)-N-(3-Hydroxy-4-(morpholin-4-ylmethyl)phenyl)-3-(4-(1-methyl-1H-pyrazol-4-yl)pyridin-3-yl)acrylamide] | 99 | 97 | 54
24 | Cn1cc(-c2ccncc2/C=C/C(=O)Nc2ccc(CN3CCOCC3)c(C#N)c2)cn1 [Example 150, (2E)-N-(3-Cyano-4-(morpholin-4-ylmethyl)phenyl)-3-(4-(1-methyl-1H-pyrazol-4-yl)pyridin-3-yl)acrylamide] | 99 | 100 | 54
25 | Cc1ncc(-c2ccncc2/C=C/C(=O)Nc2ccc(CN3CCOCC3)cc2)s1 [Example 151, (2E)-3-(4-(2-methyl-1,3-thiazol-5-yl)pyridin-3-yl)-N-(4-(morpholin-4-ylmethyl)phenyl)acrylamide] | 95 | 95 | 54

— US9957251B2 (Takeda Pharmaceutical Company Limited, priority 2014, dated 2018)
